# Test results as given in paper PMC3924328, “Structure of the S100A4/myosin-IIA complex” (BMC Structural Biology, 2013).
# The star is where a group is joined. FITC = O=C1OC2(c3ccc(O)cc3Oc3cc(O)ccc32)c2ccc(NC(=S)*)cc21; Ahx = NCCCCCC(=O)O
# Columns and labels:
# [1] = molecular target: S100A4; parameters: method as in PMID 18410126; settings: ref [4]; cited from earlier work
# [2] = molecular target: T1, S100A4Δ8C (Homo sapiens, UniProt P26447); assay: NMR titration of MIIA^1908-1923 into ^15N-labeled Ca^2+-bound S100A4Δ8C; format: binding
# T1 construct: unable to crystallize the wild-type full-length S100A4 with myosin-IIA peptides; made in house; host or cells: E. coli BL21(DE3)*
# T1 sequence (P26447 2-93, stated change not applied): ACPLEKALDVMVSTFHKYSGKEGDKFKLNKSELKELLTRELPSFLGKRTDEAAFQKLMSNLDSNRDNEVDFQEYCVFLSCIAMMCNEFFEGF
# Description: (§1) HSQC NMR data were collected at 37°C with a 600 MHz (600.13 MHz for protons) Bruker DMX NMR spectrometer equipped with pulsed-field gradients, four frequency channels, and a triple resonance, z-axis gradient cryogenic probe, Data were processed with NMRPipe, and proton chemical shifts were reported with respect to the H2O or HDO signal taken as 4.658 ppm relative to external trimethylsilylpropionic acid (0.0 ppm). The ^15 N chemical shifts were indirectly referenced as described previously using the following ratio of the zero-point frequency: 0.10132905 for ^15 N to ^1H [56].
# [3] = test system: S100A4; settings: S100A4 bound to MIIA^1908-1923; ref [4]; cited from earlier work
# Description: In this regard, we examined whether this small peptide was sufficient to induce what is termed the “final folding” event that occurs upon S100 protein-target complex formation. […] As found for other wild-type and mutant S100 proteins [[6] ...
# [4] = test system: Ca^2+-S100A4; assay: Paramagnetic relaxation, titration with spin-labeled MIIA^1893-1923-Cys-Proxyl; format: binding, human; settings: HSQC, 37°C, pH 6.5
# Description: The beads containing the immobilized TCEP and other particulates were removed using a 0.45 μm Nanosep MF GHP centrifugal device (Pall Life Sciences) before the addition of 61 μl freshly prepared 50 mg/ml 3-maleimido-Proxyl (Sigma-Aldrich) in DMSO.
# as §1
# [5] = molecular target: T2, S100A4 (Homo sapiens, UniProt P26447); assay: Sedimentation velocity of MIIA^1851-1960, S100A4 and S100A4/MIIA^1851-1960 mixtures; format: physicochemical
# T2 construct: heteronuclear single quantum coherence spectrum (HSQC) of full-length Ca^2+-S100A4 at 600 MHz; made in house; host or cells: E. coli, M9 medium with 15N NH4Cl (BL21(DE3)* is named for the unlabelled protein)
# T2 sequence (P26447 2-101 limits assumed, one chain of several): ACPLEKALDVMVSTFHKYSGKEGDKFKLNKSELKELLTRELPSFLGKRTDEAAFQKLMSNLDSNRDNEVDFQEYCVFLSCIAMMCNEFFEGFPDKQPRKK
# Description: Sedimentation equilibrium and velocity experiments were conducted at 22°C in a Beckman XL-I analytical ultracentrifuge using a Ti60 rotor and Raleigh interference optics. Wild-type S100A4 and MIIA^1851-1960 were dialyzed into 20 mM Tris pH 7.5, 150 mM KCl, 0.5 mM CaCl2, 1 mM TCEP and 0.02% NaN3 and clarified by ultracentrifugation at 80,000 rpm for 10 minutes at 4°C in TLA 120.2 rotor. Sedimentation equilibrium analysis of MIIA^1851-1960 and S100A4 was conducted in six channel centerpieces by sequentially equilibrating the protein at three concentrations for 24 hr at 12,000, 20,000 and 28,000 rpm and globally analyzing the data using HeteroAnalysis v1.1.44 (James L. Cole and Jeffrey W. Lary). The sedimentation velocity experiments were conducted at 53,000 rpm using double sector centerpieces and analyzed using DCDT + v2.4.0 [57, 58]. The best-fit parameters and their 95% joint confidence intervals are reported. The calculated masses of the wild-type S100A4 and MIIA^1851-1960 monomers are 11,597.3 and 12,397.5 Da, respectively. Values of ν-bar = 0.715 for S100A4/MIIA^851-1960 and 0.735 for S100A4, ρ = 1.0059, μ = 1.00586 cp were calculated using Sednterp v1.06 (Hayes, B., T. Laue & J. Philo, Sedimentation Interpretation Program. 2003, University of New Hampshire) from the amino acid and buffer compositions, respectively.
# [6] = test system: myosin-IIA rods; settings: assembly-competent myosin-II rod constructs; ref [19], [20]; cited from earlier work
# Description: Each heavy chain is comprised of an N-terminal motor domain that contains the ATP- and actin-binding sites, an intermediate rod domain that dimerizes to form an α-helical coiled-coil and a C-terminal tailpiece.
# [7] = submicromolar concentrations; ref [4], [27], [30]; cited from earlier work
# Description: Given the similarity in the molecular weights of the S100A4 and MIIA^1851-1960 dimers, the S100A4/MIIA^1851-1960 complex was further evaluated in sedimentation velocity experiments where MIIA^1851-1960 was added to S100A4 at increasing molar ratios. […] At a molar ratio of 0.5:1 MIIA^1851-1960 dimer to S100A4 dimer there was a shift in the S val ...
# [8] = test system: myosin-IIA rods (MIIA^1339−1960); assay: Promotion of disassembly assay, assembled myosin-IIA rods; format: biochemical; settings: one S100A4Δ8C dimer per myosin-IIA rod; 1.5 μM S100A4 dimer, 1.5 μM rod dimer; 20 mM Tris–HCl pH 7.5, 150 mM NaCl, 1 mM DTT, 2 mM MgCl2, 0.5 mM CaCl2, 0.02% NaN3; 2 hr, 22°C; SDS-PAGE densitometry; two independent experiments
# Description: Assays comparing the ability of wild-type and the Δ8C S100A4 to depolymerize assembled myosin-IIA rods were performed as described in Li et al., using 1.5 μM S100A4 dimer and 1.5 μM myosin-IIA rod dimer in 20 mM Tris–HCl pH 7.5, 150 mM NaCl, 1 mM DTT, 2 mM MgCl2, 0.5 mM CaCl2, and 0.02% NaN3. Reaction mixtures (100 μl) were incubated for 2 hr at 22°C and then centrifuged at 80,000 rpm (175000 g) for 10 min at 25°C in a TL-100 ultracentrifuge (Beckman). Samples of the reaction mixtures and supernatants were separated on a 12% Tris-Tricine SDS-polyacrylamide gel. Coomassie-stained gels were scanned and the extent of myosin-IIA polymerization was quantified by densitometry and analyzed with the ImageQuant version 5.2.
# [9] = molecular target: T1, S100A4Δ8C; assay: Fluorescence anisotropy, FITC-MIIA^1904-1927 binding to S100A4Δ8C; settings: 22°C, 5 mM EGTA, data not shown
# Description: Fluorescence anisotropy measurements were performed at 22°C using a Fluoromax-3-spectrofluorometer (Jobin Yvon). Individual reactions (200 μl) contained 50 nM FITC-MIIA^1904-1927 and 0–30 μM S100A4Δ8C dimer in 20 mM Tris pH 7.5, 150 mM KCl, 1 mM DTT, 0.02% NaN3, 0.5 mM CaCl2 and 0.5 mg/ml BSA. For competition anisotropy measurements individual reactions contained 50 nM FITC-MIIA^1904-1927, 0.3 μM S100A4 dimer and 0–10 μM MIIA^1851-1960 dimer as described above. Controls included experiments representing maximum anisotropy (15 μM wild-type S100A4 and S100A4Δ8C, 50 nM FITC-MIIA^1904-1927 and calcium) and minimum anisotropy (in the absence of S100A4 and in the presence of S100A4 and 5 mM EGTA). Anisotropy was measured using excitation and emission wavelengths of 490 nm and 520 nm, respectively. Measurements were acquired at the magic angle of 55° between the vectors of polarization of the excitation and emission light using a G factor of 0.634 as determined previously for FITC on this instrument. For measurements of S100A4Δ8C binding, data from two independent experiments were plotted using Graphpad Prism v5, and the dissociation constant was calculated by fitting to a single site saturation binding equation allowing for a floating Ymin value. […]
# [10] = sedimentation velocity, 22°C, protein alone
substance,measurement,setting,value
Ac-RRKLQRELEDATETADAMNREVSSLKNKLRR-CONH2 [MIIA^1893-1923],"Dissociation constant, in words",[1],in the nanomolar range
Ace-DAMNREVSSLKNKLRR-CONH2 [MIIA^1908-1923],Binding orientation to S100A4Δ8C versus wild-type S100A4,"[2]; 37°C, pH 6.5, 10 mM CaCl2",very similar structure/orientation in solution as observed for wild-type S100A4
same,Exchange broadening of Ca^2+-bound S100A4Δ8C upon complex formation,[2]; data not shown,exchange broadening completely disappeared
same,Ca^2+-binding affinity of S100A4 when peptide bound,[3],higher Ca^2+-binding affinity
MIIA^1893-1923-Cys-Proxyl: MIIA^1893-1923-Cys labeled with 3-maleimido-Proxyl spin label,Residues with large reductions in cross-peak intensities,[4]; 2.6 μM spin-labeled peptide,"loop 1 (Asp25), the beginning of helix 3 (Asp51, Glu52) and in the C-terminal loop (Lys100)"
same,Location of peptide C-terminus on S100A4 by paramagnetic relaxation,[4]; 2.6 and 5.3 μM spin-labeled peptide,"near residues in helix 3 and the hinge (Leu46, Gly47, Asp51, Glu52"
"S100A4: untagged, full-length human S100A4",Effect of S100A4 binding on dimeric myosin-IIA construct,"[5]; longer, dimeric myosin-IIA construct",dissociates the two myosin-IIA polypeptide chains to form a complex composed of one S100A4 dimer and a single myosin-IIA polypeptide chain
same,"Peak 1 S20,w","[5]; sedimentation velocity, 22°C, 53,000 rpm, protein alone, 20 mM Tris pH 7.5, 150 mM KCl, 0.5 mM CaCl2, 1 mM TCEP, 0.02% NaN3",1.90 ± 0.01
same,Peak 1 MW,[5]; [10],21.2 ± 0.3 kDa
same,S value,[5]; [10],1.9 S
same,"[Peak 1] (green), relative amount of plateau concentrations",[5]; [10],2.00 ± 0.02
same,Myosin-II isoform preference,[6],preferentially recognizes and disassembles myosin-IIA rods
same,Dimer stability,[7],thermostable dimer at submicromolar concentrations
S100A4Δ8C: S100A4 deletion mutant (deletion of the C-terminal eight amino acids),Myosin-IIA filaments disassembled,[8],approximately 85%
{FITC-Ahx}-TETADAMNREVSSLKNKLRRGDLP-NH2 [FITC-MIIA^1904-1927],Binding to S100A4Δ8C in the presence of EGTA,[9],no binding was observed
